Patent publication US20230293473A1, “THERAPEUTIC DRUG FOR DISEASE CAUSED BY INTESTINAL IMMUNE DISORDER” (KEIO UNIVERSITY, priority 2020, published 2023)

Assays:
[1] = test system: hepatic vagal sensory afferents; experiment: Selective hepatic vagal afferent blockade by perivagal application of capsaicin; colonic Treg and APC analysis; format: in vivo, mice; conditions: perivagal capsaicin 10 mg/ml, 30 minutes; day 2
Method: The hepatic branch of the vagal trunk was freed from the surrounding tissues by paraffin paper and then wrapped for 30 minutes with cotton bud soaked with vehicle (Tween 80: olive oil=1:9) alone or 10 mg/ml capsaicin dissolved in the vehicle solution. The cotton string was removed 30 minutes later and the abdominal incision was closed^28. Aldehyde dehydrogenase (ALDH) activity was determined using ALDEFLUOR staining kit according to the manufacturer's protocol. In brief, cells were suspended at a concentration of 10^6 cells/ml in ALDEFLUOR assay buffer containing activated ALDEFLUOR substrate (final concentration of 1.5 μM) with or without the ALDH inhibitor diethylaminobenzaldehyde (DEAB) (final concentration of 15 μM) and incubated at 37° C. for 30 minutes. […] Phenotypic analysis of T cell and APC in colon was performed at day 2 after application of capsaicin (c, d, n=16/group; e, f, n=8/group). a, b, Representative fluorescence images of TRPV1 (red) and DAPI (blue) in NG (a) and Th4-DRG (b). […] Quantification (right panel). d, Frequency of RORγt^+ cells among colonic Foxp3^+ Tregs. […] TRPV1^+ nerves in spinal cord (Th4-7 and Th13) and colonic immune cells were analyzed at day 7 after administration. g, Fluorescent immunohistochemistry of TRPV1^+ neuron in spinal cord (bar: 200 μm). […]

[2] = test system: common hepatic branch of the vagus nerve; experiment: pERK immunostaining in nodose ganglion after capsaicin deafferentation of the common hepatic branch of the vagus nerve; format: in vivo, mice
Method: The hepatic branch of the vagal trunk was freed from the surrounding tissues by paraffin paper and then wrapped for 30 minutes with cotton bud soaked with vehicle (Tween 80: olive oil=1:9) alone or 10 mg/ml capsaicin dissolved in the vehicle solution. The cotton string was removed 30 minutes later and the abdominal incision was closed^28. pEKR1/2 and c-Fos expression were analyzed immunohistochemically as reported 1. DSS-treated mice were transcardially perfused with PBS including 4% paraformaldehyde and 0.2% picric acid under anesthesia. The nodose ganglions and brains were collected, post-fixed in the same fixative for 2 hours to overnight at 4° C. and then incubated in phosphate buffer containing 30% sucrose for 48 hours. Longitudinal sections (8 μm) of NGs were cut with 48 μm intervals using a precision cryostat (Leica Microsystems, IL). Coronal sections (40 μm) of hindbrain were cut with 120 μm intervals using a freezing microtome. Rabbit polyclonal antibody to pERK1/2 (1/500) and Alexa 488-conjugated goat anti-rabbit IgG (1/500) were used. Fluorescence images were acquired with BX50 microscope and DP50 digital camera (Olympus). […] Neurons immunoreactive to pERK1/2 and c-Fos in medial NTS were counted. […] Representative fluorescence images of Alexa Fluor 488^+ neuron (green) and DAPI (blue) in NG at 1 week after injection of WGA in liver (c) and quantification (d). […]

[3] = test system: colonic APCs; experiment: In vitro Treg induction assay: naive CD4+ cells with colonic APCs in the presence of muscarine; format: cell-based; conditions: colonic APCs from WT mice precultured with muscarine
Method: Naive CD4^+ cells were isolated from spleen in WT mice using naive CD4^+ T cell isolation kit. Naive CD4^+ cells (1×10^5) were cultured in RPMI-1640 medium supplemented with 10% FBS, 2 mM glutamine, 100 U/ml penicillin, 100 µg/ml streptomycin, and 55 μM 2-mercaptoethanol in 96 well plate.
a, Three-dimensional reconstruction of CX3CR1^+ APC (green) and enteric neurons (purple) in colon in mice. b, Three-dimensional reconstruction of MHCII^+ APC (green), enteric Tuj^+ neurons (purple), and Foxp3^+ Tregs (yellow). c, d, Anatomical diagram (c) and operative field (d) for subdiaphragmatic truncal vagotomy. e, f, Colonic T cell phenotypes in mice after VGx surgery. […] Quantification (n=6/group). […]

[4] = test system: HVx mice; experiment: In vivo administration of bethanechol, GTS-21 or MLA to HVx mice; colonic APC and Treg phenotypes
Method: Bilateral or unilateral (left or right) subdiaphragmatic vagotomy was performed as previously reported (FIGS. 5c and 5d)^52. A midline incision was made to provide wide exposure of the upper abdominal organ in male mice anesthetized with the combination of medetomidine, midazolam, and butorphanol. The bilateral subdiaphragmatic trunks of vagal nerves along the esophagus were exposed and cut. In the sham operation group, these vagal trunks were exposed but not cut. Selective hepatic vagotomy (HVx) was performed as described (FIG. 7)^25. The ventral subdiaphragmatic vagal trunk was exposed as described above under anesthesia. […]
FIG. 3 The liver-brain-gut axis regulates colonic Treg homeostasis through muscarinic signaling in APC. a-d, WT and mAChR TKO mice were subjected to Sham or HVx. e, WT and mAchR TKO mice were subjected to Sham or HVx and injected additionally treated with bethanechol (BETH; i.p. 300 μg/day) every day. Phenotypes of colonic immune cell were analyzed at day 2 after surgery (n=5/group). a, Frequency of ALDH^+ cells among MHC-II^+ colonic APCs. […] Quantification (right panel). b, Aldh1a1 and Aldh1a2 mRNA expression in colonic APC. c, e, Frequency of Foxp3^+ cells among CD4^+ cells in the colon. d, Frequency of RORγt^+ cells among colonic Foxp3^+ Tregs. […]

With `COc1cc(CNC(=O)CCCC/C=C/C(C)C)ccc1O` [capsaicin] as the compound, how does the “aldehyde dehydrogenase activity in APCs” value [1] read?
The value was “reduced”.

And the “colonic Treg numbers” value [1]?
The value was “reduced”.

What about the “number of pERK positive cells in the left NG” value [2] of the same compound?
Its value is “significantly reduced”.

`C[C@@H]1O[C@H](C[N+](C)(C)C)C[C@H]1O` [muscarine] was tested. Which “generation of Foxp3+ Tregs” value [3] did it give?
The value was “enhanced”.

Which results are given for `CC(C[N+](C)(C)C)OC(N)=O` (stereo not drawn) [bethanechol]?
frequency of pTregs ([4]; HVx WT mice, BETH i.p. 300 μg/day): increased; Aldh1a1 and Aldh1a2 expression in colonic APCs ([4]; HVx mice compared with sham-operated mice, BETH i.p. 300 μg/day for 2 days): restored
